The target of experiment [1] is Cyclin-dependent kinase 2 (Homo sapiens, UniProt P24941). The experiment is described as follows: Selectivity interaction (ActivX KiNativ screen (ex vivo kinase selectivity in human PBMCs)) EUB0001619a CDK2. Format: cell-based. The note with it: PBMC, at 1 µM.
The target in experiment [2] is Serine/threonine-protein kinase SMG1 (Homo sapiens) (UniProt Q96Q15). Description: Selectivity interaction (ActivX KiNativ screen (kinase selectivity in THP-1 cell lysates)) EUB0000639a SMG1. The experiment is classed as subcellular. The note with it: lysate, at 0.2 µM.
Serine/threonine-protein kinase SMG1 (Homo sapiens), sequence (Q96Q15 whole entry): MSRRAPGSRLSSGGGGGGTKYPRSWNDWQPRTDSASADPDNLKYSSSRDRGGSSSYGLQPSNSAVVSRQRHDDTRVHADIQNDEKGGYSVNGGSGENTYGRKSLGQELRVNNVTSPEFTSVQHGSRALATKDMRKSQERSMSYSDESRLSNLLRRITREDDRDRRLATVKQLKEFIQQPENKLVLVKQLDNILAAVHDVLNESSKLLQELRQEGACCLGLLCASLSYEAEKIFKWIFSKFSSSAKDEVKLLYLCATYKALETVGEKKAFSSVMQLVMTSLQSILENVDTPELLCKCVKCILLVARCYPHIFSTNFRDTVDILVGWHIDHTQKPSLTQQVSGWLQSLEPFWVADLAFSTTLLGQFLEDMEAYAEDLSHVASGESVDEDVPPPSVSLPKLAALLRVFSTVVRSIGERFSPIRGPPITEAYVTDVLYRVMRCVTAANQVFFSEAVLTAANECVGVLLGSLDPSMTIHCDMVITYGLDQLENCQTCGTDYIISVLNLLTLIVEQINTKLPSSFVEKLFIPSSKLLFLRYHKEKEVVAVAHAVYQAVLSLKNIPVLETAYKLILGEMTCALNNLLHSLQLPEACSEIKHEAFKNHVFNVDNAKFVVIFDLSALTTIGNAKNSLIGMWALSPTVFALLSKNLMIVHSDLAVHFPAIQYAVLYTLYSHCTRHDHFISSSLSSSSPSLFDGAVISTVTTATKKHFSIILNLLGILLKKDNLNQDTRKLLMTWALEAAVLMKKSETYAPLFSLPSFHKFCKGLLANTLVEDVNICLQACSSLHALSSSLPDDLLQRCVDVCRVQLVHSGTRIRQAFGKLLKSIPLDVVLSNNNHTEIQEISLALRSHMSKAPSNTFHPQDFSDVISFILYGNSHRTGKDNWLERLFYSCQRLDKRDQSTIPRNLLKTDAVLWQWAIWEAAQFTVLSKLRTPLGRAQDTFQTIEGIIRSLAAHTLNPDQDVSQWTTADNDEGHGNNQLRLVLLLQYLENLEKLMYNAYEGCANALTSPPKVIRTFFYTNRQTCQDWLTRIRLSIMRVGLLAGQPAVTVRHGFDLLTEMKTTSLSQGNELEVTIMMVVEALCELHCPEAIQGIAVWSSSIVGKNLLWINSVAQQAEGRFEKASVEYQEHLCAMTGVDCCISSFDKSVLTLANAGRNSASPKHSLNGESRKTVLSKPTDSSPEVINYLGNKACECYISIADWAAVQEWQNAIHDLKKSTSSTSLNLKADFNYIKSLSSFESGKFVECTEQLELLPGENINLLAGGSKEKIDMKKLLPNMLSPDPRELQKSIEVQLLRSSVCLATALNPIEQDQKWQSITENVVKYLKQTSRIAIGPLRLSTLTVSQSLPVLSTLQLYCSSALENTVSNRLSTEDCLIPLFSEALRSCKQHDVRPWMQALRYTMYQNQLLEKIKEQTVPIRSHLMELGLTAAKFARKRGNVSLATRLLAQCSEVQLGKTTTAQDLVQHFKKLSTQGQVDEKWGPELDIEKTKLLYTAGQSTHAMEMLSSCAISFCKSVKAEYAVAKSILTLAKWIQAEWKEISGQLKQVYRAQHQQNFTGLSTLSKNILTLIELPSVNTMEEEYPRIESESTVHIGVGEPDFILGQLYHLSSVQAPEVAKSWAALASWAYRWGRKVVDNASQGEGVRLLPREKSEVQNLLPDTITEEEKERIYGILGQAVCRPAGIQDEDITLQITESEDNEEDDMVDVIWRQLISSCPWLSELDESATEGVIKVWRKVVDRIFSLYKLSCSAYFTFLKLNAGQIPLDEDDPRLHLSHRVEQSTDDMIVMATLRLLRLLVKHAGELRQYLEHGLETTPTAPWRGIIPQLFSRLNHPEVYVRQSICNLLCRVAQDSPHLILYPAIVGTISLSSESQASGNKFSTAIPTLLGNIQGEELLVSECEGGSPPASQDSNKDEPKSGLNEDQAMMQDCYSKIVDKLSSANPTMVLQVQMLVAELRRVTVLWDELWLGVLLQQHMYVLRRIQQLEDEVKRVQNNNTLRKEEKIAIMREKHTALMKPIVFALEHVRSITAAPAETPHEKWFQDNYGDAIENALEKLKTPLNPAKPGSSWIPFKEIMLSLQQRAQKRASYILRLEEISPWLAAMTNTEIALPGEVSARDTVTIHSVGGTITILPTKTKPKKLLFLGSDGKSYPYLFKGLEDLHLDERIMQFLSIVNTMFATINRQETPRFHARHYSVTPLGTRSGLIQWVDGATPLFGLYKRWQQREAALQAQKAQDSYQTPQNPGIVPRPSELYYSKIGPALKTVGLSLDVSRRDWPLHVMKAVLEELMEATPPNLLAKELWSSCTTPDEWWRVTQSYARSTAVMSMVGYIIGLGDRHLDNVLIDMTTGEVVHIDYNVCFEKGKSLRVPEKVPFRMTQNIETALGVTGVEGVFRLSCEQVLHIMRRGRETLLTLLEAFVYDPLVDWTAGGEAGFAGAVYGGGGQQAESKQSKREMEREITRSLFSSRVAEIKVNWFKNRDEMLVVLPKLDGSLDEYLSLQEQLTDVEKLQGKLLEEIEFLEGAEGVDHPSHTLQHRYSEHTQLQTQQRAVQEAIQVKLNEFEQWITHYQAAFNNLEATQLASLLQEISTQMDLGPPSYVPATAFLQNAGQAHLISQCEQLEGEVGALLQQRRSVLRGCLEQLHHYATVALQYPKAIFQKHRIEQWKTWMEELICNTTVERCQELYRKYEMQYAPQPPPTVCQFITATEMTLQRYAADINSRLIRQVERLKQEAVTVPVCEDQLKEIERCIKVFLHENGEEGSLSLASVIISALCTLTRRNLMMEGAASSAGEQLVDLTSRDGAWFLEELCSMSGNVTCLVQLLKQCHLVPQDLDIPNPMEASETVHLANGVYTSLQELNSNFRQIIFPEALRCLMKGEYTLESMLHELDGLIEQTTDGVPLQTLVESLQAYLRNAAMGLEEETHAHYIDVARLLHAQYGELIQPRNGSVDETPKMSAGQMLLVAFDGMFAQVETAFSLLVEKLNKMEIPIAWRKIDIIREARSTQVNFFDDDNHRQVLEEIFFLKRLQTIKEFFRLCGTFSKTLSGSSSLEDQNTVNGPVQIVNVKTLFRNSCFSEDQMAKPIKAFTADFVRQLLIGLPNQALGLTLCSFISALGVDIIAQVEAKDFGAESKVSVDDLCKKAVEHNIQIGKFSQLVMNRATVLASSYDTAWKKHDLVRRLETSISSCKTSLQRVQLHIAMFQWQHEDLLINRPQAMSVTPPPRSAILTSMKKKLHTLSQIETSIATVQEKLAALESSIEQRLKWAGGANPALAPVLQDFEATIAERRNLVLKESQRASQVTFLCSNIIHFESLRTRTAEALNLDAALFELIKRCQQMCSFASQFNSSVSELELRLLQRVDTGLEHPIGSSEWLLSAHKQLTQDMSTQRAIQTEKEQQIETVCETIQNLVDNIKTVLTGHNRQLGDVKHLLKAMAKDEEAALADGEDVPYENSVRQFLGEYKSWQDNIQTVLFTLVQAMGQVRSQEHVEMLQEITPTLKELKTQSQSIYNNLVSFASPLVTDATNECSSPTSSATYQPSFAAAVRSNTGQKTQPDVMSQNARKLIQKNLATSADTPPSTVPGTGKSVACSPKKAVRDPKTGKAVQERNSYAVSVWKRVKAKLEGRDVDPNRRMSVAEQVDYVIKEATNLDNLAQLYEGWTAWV
Experiment [3] has as its target T1, Mitogen-activated protein kinase kinase kinase 6 (Homo sapiens) (UniProt O95382).
T1 sequence (whole entry): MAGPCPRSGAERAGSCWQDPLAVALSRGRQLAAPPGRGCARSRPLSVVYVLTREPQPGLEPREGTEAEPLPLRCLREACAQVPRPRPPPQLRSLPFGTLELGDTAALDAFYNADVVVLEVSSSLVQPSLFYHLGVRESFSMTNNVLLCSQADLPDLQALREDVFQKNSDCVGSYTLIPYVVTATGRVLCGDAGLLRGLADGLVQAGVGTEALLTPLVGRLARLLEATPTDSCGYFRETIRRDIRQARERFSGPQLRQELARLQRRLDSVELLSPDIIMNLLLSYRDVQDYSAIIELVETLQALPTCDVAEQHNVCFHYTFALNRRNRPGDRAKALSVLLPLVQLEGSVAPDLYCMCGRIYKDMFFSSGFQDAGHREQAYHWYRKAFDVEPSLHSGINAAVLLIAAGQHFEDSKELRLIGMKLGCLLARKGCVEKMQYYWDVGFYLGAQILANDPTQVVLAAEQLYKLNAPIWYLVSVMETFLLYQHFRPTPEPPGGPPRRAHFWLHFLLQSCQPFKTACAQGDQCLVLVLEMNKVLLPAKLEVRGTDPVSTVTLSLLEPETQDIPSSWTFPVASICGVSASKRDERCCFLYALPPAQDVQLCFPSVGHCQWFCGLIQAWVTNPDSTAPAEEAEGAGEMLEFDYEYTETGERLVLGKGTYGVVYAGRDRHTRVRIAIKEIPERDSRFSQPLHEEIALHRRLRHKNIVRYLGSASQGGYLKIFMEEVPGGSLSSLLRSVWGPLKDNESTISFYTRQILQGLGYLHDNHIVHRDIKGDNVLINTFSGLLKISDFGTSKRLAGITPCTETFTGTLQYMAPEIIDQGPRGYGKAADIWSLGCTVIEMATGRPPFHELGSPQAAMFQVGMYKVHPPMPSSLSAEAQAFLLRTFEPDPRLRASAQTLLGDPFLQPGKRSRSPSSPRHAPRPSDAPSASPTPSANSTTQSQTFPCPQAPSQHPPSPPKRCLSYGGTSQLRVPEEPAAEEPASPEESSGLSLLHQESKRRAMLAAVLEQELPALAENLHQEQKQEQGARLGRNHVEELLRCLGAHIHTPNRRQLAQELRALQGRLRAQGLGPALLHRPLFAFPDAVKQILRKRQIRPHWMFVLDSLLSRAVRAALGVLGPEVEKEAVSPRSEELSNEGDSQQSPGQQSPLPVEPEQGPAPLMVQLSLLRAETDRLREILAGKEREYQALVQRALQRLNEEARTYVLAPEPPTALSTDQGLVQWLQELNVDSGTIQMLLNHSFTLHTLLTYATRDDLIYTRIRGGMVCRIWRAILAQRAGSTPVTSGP
Description: Selectivity interaction (ActivX KiNativ screen (kinase selectivity in THP-1 cell lysates)) EUB0000639a MAP3K6. Format: subcellular. The settings on record: lysate.

The target in another experiment is Focal adhesion kinase 1 (Homo sapiens, UniProt Q05397). The experiment is described as follows: Selectivity interaction (ActivX KiNativ screen (kinase selectivity in THP-1 cell lysates)) EUB0000639a PTK2. The experiment is classed as subcellular. The note with it: lysate, at 0.01 µM.
Experiment [4] concerns the target Dual specificity testis-specific protein kinase 1 (Homo sapiens) (UniProt Q15569). The experiment is described as follows: Selectivity interaction (Ambit KINOMEscan and KiNATiv profiling in Jurkat cells) EUB0000090b TESK1. Format: cell-based. The settings on record: at 1 µM.
Experiment [5] concerns the target T2, Serine/threonine-protein kinase RIO1 (Homo sapiens) (UniProt Q9BRS2).
T2 sequence (whole entry): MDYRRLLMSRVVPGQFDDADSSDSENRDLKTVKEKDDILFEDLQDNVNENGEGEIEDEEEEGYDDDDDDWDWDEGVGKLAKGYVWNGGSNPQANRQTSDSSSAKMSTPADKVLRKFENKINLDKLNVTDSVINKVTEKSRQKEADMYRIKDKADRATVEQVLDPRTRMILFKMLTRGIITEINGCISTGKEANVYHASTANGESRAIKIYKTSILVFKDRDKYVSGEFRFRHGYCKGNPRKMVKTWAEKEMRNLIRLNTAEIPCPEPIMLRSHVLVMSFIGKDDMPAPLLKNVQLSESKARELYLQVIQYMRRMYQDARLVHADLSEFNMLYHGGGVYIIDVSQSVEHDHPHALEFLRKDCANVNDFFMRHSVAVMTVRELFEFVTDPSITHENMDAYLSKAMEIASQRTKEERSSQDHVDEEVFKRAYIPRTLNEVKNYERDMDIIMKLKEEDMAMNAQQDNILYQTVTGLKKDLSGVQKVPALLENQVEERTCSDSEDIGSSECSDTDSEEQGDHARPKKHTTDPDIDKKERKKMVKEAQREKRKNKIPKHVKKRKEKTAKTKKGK
Description: Selectivity interaction (Ambit KINOMEscan and KiNATiv profiling in Jurkat cells) EUB0000090b RIOK1. Format: cell-based. The note with it: at 1 µM.

Dual specificity testis-specific protein kinase 1 (Homo sapiens), sequence (Q15569 whole entry, looked up): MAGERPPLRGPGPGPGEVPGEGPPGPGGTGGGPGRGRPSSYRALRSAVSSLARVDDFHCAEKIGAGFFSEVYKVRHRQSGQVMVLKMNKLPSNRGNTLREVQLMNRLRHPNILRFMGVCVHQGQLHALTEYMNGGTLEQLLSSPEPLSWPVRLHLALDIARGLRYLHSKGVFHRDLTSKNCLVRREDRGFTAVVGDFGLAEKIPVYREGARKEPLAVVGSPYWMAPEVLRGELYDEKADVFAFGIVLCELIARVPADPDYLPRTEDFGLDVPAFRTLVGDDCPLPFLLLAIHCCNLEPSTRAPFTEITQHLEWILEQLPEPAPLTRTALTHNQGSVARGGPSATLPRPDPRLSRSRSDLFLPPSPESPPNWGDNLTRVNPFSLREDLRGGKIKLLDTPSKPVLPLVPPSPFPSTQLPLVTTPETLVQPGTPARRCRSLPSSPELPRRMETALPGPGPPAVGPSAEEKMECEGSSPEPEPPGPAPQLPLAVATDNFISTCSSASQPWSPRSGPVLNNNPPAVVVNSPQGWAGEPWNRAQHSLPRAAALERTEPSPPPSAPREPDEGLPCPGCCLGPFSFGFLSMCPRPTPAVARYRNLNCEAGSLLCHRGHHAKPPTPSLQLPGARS

Turning to `N#Cc1cccc(-c2c[nH]c3ncnc(N4CCOCC4)c23)c1`, the % of inhibition in experiment [1] amounted to 8%.
For `CC[C@@H]1[C@H](F)C(=O)N[C@@H]1COc1nccc2cc(C(N)=O)c(OC)cc12` [ZIMLOVISERTIB], the % of inhibition was 0% in experiment [2]; -12.1% in experiment [3] (at 0.01 µM); -3.2% in experiment [3] (at 0.04 µM); 0% in experiment [3] (at 0.2 µM); -6.5% in experiment [3] (at 1 µM); -21.9% in experiment [3] (at 5 µM). The % of inhibition on Focal adhesion kinase 1 was -47.2%.
As for `CN(C)C/C=C/C(=O)Nc1ccc(C(=O)N2CCCC(Nc3ncc(Cl)c(-c4c[nH]c5ccccc45)n3)C2)cc1` (stereo not given), the % of control in experiment [4] is 86%; in experiment [5] it was 100%.
